From PMC8213057, “Targeting ALK2: An Open Science Approach to Developing Therapeutics for the Treatment of Diffuse Intrinsic Pontine Glioma” (Journal of Medicinal Chemistry, 2020)
Several values for one entry are separate records, joined by “and”; a condition that tells them apart may be missing. Identical values can stand only once.

What was measured:
RIPK4 = target: T1, RIPK4 (Homo sapiens, UniProt P57078); conditions: 1 μM; Run 1, Run 2
T1 sequence (P57078 1-832): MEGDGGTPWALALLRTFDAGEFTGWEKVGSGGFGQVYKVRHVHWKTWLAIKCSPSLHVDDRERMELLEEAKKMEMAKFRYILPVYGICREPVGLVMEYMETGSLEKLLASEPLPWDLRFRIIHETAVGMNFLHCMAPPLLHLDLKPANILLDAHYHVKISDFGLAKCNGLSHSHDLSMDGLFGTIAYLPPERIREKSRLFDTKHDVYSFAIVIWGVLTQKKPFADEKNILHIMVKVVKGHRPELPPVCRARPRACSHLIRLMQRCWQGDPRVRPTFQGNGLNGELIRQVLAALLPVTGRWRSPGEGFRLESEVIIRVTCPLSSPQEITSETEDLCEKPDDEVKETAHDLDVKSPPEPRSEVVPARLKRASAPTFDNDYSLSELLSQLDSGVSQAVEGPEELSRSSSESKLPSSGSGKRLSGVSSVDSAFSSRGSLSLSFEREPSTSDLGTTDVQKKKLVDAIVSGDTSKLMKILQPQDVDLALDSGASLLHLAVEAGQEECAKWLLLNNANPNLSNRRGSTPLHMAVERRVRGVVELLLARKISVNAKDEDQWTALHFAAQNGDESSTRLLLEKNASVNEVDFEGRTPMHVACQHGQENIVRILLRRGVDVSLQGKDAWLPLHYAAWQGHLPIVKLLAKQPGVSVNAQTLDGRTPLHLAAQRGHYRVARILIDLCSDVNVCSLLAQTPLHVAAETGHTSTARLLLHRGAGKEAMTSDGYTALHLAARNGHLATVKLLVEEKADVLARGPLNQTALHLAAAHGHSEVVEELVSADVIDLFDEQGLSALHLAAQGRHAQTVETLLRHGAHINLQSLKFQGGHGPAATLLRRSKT

DCAMKL1 = target: T2, DCAMKL1 (Homo sapiens, UniProt O15075); conditions: 1 μM; Run 1, Run 2
T2 sequence (O15075 1-740): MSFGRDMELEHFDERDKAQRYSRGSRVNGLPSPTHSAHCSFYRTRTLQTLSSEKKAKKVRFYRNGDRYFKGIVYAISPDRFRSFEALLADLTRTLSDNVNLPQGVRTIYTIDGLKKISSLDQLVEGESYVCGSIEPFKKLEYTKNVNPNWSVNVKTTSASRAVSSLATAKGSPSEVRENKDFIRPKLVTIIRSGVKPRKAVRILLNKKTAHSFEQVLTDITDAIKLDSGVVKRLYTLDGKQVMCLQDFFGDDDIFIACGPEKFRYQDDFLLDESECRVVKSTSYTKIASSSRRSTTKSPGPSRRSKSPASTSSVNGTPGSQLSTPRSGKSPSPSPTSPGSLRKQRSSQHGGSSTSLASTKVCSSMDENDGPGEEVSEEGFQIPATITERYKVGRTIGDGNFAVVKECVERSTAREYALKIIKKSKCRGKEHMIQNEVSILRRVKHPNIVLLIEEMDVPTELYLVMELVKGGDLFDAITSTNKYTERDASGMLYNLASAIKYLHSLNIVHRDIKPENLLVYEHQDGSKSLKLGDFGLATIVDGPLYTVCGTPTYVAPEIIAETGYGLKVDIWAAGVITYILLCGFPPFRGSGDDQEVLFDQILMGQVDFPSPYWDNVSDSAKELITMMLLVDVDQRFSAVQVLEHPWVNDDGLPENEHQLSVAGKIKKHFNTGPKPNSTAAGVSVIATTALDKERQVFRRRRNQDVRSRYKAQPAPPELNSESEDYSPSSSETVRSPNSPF

PEAK1 = PEAK1 (Homo sapiens, UniProt Q9H792); conditions: 1 μM; Run 1, Run 2
TLK1 = target: T3, TLK1 (Homo sapiens, UniProt Q9UKI8); conditions: 1 μM; Run 1, Run 2
T3 sequence (Q9UKI8 1-766): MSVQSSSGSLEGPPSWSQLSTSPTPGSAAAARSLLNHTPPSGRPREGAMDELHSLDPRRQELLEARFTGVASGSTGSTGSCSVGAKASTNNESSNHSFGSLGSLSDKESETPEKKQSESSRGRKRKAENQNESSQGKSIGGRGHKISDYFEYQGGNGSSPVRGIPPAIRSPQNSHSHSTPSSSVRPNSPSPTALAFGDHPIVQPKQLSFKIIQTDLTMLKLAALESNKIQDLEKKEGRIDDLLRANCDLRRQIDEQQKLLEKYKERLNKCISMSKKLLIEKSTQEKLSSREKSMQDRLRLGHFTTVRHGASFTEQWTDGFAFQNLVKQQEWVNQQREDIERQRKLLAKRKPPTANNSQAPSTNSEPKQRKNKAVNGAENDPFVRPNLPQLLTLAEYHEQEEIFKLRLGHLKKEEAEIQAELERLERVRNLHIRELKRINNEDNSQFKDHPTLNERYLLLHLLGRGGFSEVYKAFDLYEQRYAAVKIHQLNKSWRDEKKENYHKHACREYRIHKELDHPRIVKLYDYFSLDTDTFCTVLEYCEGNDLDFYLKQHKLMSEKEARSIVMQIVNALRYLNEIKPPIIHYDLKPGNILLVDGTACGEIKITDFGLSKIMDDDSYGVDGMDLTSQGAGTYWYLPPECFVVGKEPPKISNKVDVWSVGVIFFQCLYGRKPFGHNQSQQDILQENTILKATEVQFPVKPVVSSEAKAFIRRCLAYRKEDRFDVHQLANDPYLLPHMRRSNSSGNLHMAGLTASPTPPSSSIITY

CLK2 = CLK2 (Homo sapiens, UniProt P49760); conditions: 1 μM; Run 1, Run 2
CLK2, sequence (P49760 whole entry): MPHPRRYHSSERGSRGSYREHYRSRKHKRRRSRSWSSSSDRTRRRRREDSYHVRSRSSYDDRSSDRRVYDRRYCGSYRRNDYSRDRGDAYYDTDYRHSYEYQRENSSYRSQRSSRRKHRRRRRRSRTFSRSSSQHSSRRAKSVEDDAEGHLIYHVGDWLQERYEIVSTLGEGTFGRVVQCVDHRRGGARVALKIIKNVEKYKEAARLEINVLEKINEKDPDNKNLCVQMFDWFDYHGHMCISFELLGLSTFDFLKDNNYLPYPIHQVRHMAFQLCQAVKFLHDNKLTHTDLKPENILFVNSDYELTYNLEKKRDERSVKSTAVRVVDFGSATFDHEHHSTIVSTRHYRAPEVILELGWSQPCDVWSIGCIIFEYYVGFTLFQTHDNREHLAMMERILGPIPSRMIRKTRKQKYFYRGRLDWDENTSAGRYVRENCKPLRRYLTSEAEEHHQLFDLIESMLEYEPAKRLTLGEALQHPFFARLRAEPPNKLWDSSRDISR

TRKB = TRKB (Homo sapiens, UniProt Q16620); conditions: 1 μM; Run 1, Run 2
TRKB, sequence (Q16620 32-822): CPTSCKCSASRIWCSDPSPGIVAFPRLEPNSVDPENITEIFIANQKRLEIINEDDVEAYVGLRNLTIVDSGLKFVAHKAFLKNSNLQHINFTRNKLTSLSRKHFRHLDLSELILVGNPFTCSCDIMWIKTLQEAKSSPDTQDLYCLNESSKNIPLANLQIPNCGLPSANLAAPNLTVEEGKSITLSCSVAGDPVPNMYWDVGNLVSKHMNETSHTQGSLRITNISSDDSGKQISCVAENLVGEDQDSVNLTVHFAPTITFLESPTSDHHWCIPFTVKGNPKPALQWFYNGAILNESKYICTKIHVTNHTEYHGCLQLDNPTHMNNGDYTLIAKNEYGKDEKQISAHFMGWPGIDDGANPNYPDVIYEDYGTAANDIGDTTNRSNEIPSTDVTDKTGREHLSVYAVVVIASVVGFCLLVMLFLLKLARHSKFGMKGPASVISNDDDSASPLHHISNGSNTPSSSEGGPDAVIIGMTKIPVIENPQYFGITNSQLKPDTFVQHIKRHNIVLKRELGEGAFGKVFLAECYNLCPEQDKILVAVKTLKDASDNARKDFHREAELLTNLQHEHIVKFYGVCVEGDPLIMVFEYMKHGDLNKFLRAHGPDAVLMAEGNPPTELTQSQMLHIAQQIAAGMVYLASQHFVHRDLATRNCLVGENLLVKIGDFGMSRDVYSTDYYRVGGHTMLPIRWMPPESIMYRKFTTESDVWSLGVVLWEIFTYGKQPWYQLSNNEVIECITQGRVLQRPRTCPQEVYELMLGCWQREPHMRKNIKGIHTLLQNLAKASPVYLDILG

CDK4/cyclin D1 = CDK4/cyclin D1 (Homo sapiens, UniProt P11802); assay: biochemical; conditions: read-out: % enzyme activity, 1 μM; Run 1, Run 2
CDK4/cyclin D1, sequence (P11802 whole entry): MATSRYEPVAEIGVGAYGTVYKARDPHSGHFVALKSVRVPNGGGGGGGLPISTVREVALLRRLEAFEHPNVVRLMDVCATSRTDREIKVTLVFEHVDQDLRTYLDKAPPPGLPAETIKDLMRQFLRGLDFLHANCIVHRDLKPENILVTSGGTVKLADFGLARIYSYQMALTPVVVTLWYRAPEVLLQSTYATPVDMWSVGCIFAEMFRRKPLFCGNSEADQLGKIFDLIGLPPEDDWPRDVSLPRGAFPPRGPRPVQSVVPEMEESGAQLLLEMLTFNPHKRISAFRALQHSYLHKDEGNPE
CDK4/cyclin D1, sequence (P24385 whole entry partner): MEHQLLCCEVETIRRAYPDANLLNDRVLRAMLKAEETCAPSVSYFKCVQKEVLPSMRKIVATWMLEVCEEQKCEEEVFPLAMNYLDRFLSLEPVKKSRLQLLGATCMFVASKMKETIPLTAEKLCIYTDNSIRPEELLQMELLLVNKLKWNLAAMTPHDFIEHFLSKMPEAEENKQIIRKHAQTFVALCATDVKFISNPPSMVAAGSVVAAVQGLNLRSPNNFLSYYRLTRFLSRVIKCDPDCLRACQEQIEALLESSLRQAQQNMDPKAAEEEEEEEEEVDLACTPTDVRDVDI

NIM1 = NIM1 (Homo sapiens, UniProt Q8IY84); assay: biochemical; conditions: read-out: % enzyme activity, 1 μM; Run 1, Run 2
NIM1, sequence (Q8IY84 whole entry): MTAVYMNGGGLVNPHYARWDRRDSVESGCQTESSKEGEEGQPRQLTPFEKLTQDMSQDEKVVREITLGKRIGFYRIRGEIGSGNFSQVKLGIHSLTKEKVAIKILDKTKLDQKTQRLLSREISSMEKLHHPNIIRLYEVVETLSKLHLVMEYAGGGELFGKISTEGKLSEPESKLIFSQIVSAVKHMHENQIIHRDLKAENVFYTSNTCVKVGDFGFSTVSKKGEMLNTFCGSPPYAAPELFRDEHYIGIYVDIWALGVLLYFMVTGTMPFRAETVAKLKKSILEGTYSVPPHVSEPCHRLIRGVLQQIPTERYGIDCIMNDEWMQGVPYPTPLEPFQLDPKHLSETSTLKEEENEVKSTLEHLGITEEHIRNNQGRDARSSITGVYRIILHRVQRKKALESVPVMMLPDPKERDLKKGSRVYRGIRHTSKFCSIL

CK1d = CK1d (Homo sapiens, UniProt P48730); assay: biochemical; conditions: read-out: % enzyme activity, 1 μM; Run 1, Run 2
CK1d, sequence (P48730 whole entry): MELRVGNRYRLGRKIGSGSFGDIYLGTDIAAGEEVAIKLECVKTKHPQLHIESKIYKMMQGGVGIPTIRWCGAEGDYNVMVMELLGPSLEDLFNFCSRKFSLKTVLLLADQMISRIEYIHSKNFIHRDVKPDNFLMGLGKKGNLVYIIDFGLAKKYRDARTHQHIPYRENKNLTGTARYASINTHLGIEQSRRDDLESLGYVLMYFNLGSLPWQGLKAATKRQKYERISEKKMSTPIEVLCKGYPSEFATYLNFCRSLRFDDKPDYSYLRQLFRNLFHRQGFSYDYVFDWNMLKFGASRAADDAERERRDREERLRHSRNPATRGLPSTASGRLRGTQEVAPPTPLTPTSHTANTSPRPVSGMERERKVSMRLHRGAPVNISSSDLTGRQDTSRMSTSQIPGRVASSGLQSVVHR

RSK1 = RSK1 (Homo sapiens, UniProt Q15418); assay: biochemical; conditions: read-out: % enzyme activity, 1 μM; Run 1, Run 2
RSK1, sequence (Q15418 whole entry): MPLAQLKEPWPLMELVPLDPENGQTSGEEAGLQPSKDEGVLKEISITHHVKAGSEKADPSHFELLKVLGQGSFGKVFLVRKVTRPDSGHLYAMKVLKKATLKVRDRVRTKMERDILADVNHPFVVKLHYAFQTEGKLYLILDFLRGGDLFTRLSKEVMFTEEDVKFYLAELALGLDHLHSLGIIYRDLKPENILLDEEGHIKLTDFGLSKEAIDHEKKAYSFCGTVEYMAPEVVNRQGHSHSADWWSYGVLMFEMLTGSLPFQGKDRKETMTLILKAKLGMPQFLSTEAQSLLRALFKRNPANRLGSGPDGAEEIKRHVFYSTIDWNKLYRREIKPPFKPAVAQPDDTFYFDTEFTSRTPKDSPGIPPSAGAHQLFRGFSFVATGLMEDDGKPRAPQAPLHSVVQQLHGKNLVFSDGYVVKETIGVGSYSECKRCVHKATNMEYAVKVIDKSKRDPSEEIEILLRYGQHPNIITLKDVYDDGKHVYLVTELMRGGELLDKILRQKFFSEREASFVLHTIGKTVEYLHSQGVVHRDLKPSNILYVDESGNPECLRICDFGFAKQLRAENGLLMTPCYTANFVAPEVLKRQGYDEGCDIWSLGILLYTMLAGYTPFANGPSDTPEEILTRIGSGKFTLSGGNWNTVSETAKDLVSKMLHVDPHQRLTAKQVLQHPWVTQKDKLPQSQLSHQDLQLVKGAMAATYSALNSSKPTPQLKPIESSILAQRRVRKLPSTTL

MEK2 = MEK2 (Homo sapiens, UniProt P36507); conditions: 1 μM; Run 1, Run 2
MEK2, sequence (P36507 whole entry): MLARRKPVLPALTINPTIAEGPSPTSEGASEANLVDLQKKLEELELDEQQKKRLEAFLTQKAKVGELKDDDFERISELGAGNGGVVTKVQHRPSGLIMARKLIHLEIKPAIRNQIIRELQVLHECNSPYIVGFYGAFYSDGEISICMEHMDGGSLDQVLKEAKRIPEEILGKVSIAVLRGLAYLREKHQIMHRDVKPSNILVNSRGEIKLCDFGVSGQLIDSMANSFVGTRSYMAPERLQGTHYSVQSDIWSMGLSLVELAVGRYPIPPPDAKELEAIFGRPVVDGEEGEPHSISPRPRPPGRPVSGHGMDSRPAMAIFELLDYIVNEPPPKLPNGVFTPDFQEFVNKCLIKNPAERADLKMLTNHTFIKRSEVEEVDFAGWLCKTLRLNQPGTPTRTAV

CK2a = CK2a (Homo sapiens, UniProt P68400); assay: biochemical; conditions: read-out: % enzyme activity, 1 μM; Run 1, Run 2
CK2a, sequence (P68400 whole entry): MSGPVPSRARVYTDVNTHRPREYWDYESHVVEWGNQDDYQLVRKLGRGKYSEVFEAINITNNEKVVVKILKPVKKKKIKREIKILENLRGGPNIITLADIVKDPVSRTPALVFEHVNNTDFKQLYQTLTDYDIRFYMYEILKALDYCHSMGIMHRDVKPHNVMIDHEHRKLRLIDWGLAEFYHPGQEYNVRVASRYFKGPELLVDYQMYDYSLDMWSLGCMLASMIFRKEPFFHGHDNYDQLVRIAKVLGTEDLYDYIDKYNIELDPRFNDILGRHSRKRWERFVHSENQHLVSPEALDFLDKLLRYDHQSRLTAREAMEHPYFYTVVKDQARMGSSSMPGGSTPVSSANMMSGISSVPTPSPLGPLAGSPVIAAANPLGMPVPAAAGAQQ

In the case of `COc1cc(-c2cncc(-c3ccc(N4CCN(C)CC4)cc3)c2C)cc(F)c1C(N)=O` [Compound 26a, 2-Fluoro-6-methoxy-4-(4-methyl-5-(4-(4-methylpiperazin-1-yl)phenyl)pyridin-3-yl)benzamide], the “% enzyme activity” value (RIPK4) was 70.28%, the “% enzyme activity” value (DCAMKL1) was 81.46% and the “% enzyme activity” value (PEAK1) was 97.59%. For the same compound, the “% enzyme activity” value (TLK1) was 107.91%, the “% enzyme activity” value (CLK2) was 91.71% and the “% enzyme activity” value (TRKB) was 99.94%. It also gave a remaining activity at 1 µM (CDK4/cyclin D1) of 99.4%, a remaining activity at 1 µM (NIM1) of 96.6% and a remaining activity at 1 µM (CK1d) of 98.1%. The % enzyme activity at 1 μM (ZAK/MLTK) was 31.3% and 30.9%, the remaining activity at 1 µM (RSK1) was 98.9% and the “% enzyme activity” value (MEK2) was 85.87%. The remaining activity at 1 µM (CK2a) was 92.5%.

`COc1cc(-c2cncc(-c3ccc(N4C[C@@H](C)N(C)[C@@H](C)C4)cc3)c2C)cc(F)c1C(N)=O` [Compound 26c, 2-Fluoro-6-methoxy-4-(4-methyl-5-(4-((3R,5S)-3,4,5-trimethylpiperazin-1-yl)phenyl)pyridin-3-yl)benzamide] was tested, and the “% enzyme activity” value (RIPK4) was 82.04%, the “% enzyme activity” value (DCAMKL1) was 85.85% and the “% enzyme activity” value (PEAK1) was 95.56%. For the same compound, the “% enzyme activity” value (TLK1) was 100.84%, the “% enzyme activity” value (CLK2) was 85.73% and the “% enzyme activity” value (TRKB) was 98.44%. It also gave a remaining activity at 1 µM (CDK4/cyclin D1) of 100%, a remaining activity at 1 µM (NIM1) of 98.2% and a remaining activity at 1 µM (CK1d) of 108%. The % enzyme activity at 1 μM (ZAK/MLTK) was 46.6%, the remaining activity at 1 µM (RSK1) was 102% and the “% enzyme activity” value (MEK2) was 91.58%. The remaining activity at 1 µM (CK2a) was 87.2%.
